Measurements as given in patent US10111875B2, “Pyrrolopyrimidine compounds and uses thereof” (HUTCHISON MEDIPHARMA LIMITED, priority 2010, dated 2018).

Each compound was assayed against Recombinant human JAK1 catalytic domain (Homo sapiens (Human), UniProt P23458) (assay: JAK1 kinase assay (Z'-LYTE Tyr 6 Peptide)). Settings: JAK1 kinase assay, 0.3 uM concentration; read-out: inhibition percentage (IR %).
Recombinant human JAK1 catalytic domain, sequence (P23458 875-1153): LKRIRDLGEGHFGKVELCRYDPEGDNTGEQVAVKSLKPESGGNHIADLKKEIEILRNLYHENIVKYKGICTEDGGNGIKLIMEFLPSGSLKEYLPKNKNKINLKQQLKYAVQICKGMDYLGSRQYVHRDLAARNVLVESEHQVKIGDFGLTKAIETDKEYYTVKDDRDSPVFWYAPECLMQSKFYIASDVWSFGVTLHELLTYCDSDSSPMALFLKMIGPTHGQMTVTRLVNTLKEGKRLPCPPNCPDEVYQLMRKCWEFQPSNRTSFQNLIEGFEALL
Format: biochemical
Procedure: JAK1/2/3 kinase assay are performed in vitro using Kit-Tyr 6 Peptide (Invitrogen, Cat. No. PV4122). TYK2 kinase assay are performed in vitro using Z′-LYTE™ Kinase Assay Kit-Tyr 3 Peptide (Invitrogen, Cat. No. PV3192). […] All compounds are initially tested at 8 different concentrations (1 μM down to 0.0003 μM) using a 1:3 serial dilution scheme.
`CN(c1ccc(C#N)cc1F)[C@@H]1CCN(c2ncnc3[nH]ccc23)C1` [Compound 103, (R)-4-((1-(7H-pyrrolo[2,3-d]pyrimidin-4-yl)pyrrolidin-3-yl)(methyl)amino)-3-fluorobenzonitrile] was tested, and the inhibition at 0.3 µM was 50 to 100%. Compound `N#CCN(C1CC1)[C@@H]1CCN(c2ncnc3[nH]ccc23)C1` [Compound 55] has an inhibition at 0.3 µM of 50 to 100%. Work on `CN(c1ccc(C#N)c(Br)c1)[C@@H]1CCN(c2ncnc3[nH]ccc23)C1` [Compound 114] yielded an inhibition at 0.3 µM of 50 to 100%. Work on `CN(c1ccc(S(=O)(=O)NCC2CC2)cn1)[C@@H]1CCN(c2ncnc3[nH]ccc23)C1` [Compound 235] yielded an inhibition at 0.3 µM of 50 to 100%. `CN(c1ccc(-c2cccs2)cn1)[C@@H]1CCN(c2ncnc3[nH]ccc23)C1` [Compound 147] was tested, and the inhibition at 0.3 µM was 50 to 100%. Compound `CN(c1ccc(C(=O)Nc2cccc(Cl)c2)cc1F)[C@@H]1CCN(c2ncnc3[nH]ccc23)C1` [Compound 185] has an inhibition at 0.3 µM of 50 to 100%. For `CN(c1ccc(C(=O)NC2CC2)cn1)[C@@H]1CCN(c2ncnc3[nH]ccc23)C1` [Compound 171, (R)-6-((1-(7H-pyrrolo[2,3-d]pyrimidin-4-yl)pyrrolidin-3-yl)(methyl)amino)-N-cyclopropylnicotinamide], the inhibition at 0.3 µM was 50 to 100%. `CC(C)[C@H](CO)NC(=O)c1ccc(N(C)[C@@H]2CCN(c3ncnc4[nH]ccc34)C2)c(F)c1` [Compound 180] showed an inhibition at 0.3 µM of 50 to 100%. For `CCN(c1ccc(S(C)(=O)=O)cn1)[C@@H]1CCN(c2ncnc3[nH]ccc23)C1` [Compound 44], the inhibition at 0.3 µM was 20 to 50%. `CCN(c1ccc(C#N)cn1)[C@@H]1CCN(c2ncnc3[nH]ccc23)C1` [Compound 126, (R)-6-((1-(7H-pyrrolo[2,3-d]pyrimidin-4-yl)pyrrolidin-3-yl)(ethyl)amino)-nicotinonitrile] gave an inhibition at 0.3 µM of 50 to 100%. With `Cc1cc([N+](=O)[O-])cnc1N(C)[C@@H]1CCN(c2ncnc3[nH]ccc23)C1` [Compound 75] the inhibition at 0.3 µM was 20 to 50%. `CCN(c1c(F)cc(C#N)cc1F)[C@@H]1CCN(c2ncnc3[nH]ccc23)C1` [Compound 132] was tested, and the inhibition at 0.3 µM was 50 to 100%. Compound `Cc1cc(N(C)[C@@H]2CCN(c3ncnc4[nH]ccc34)C2)nc(Cl)c1C#N` [Compound 72] has an inhibition at 0.3 µM of 50 to 100%. `CN(c1ccc(-c2cn[nH]c2)cn1)[C@@H]1CCN(c2ncnc3[nH]ccc23)C1` [Compound 150] showed an inhibition at 0.3 µM of 50 to 100%. With `CN(c1ccc(C#N)cc1C(F)(F)F)[C@@H]1CCN(c2ncnc3[nH]ccc23)C1` [Compound 109] the inhibition at 0.3 µM was 20 to 50%. `CN(c1nc(Cl)nc2ccccc12)[C@@H]1CCN(c2ncnc3[nH]ccc23)C1` [Compound 79] showed an inhibition at 0.3 µM of 50 to 100%. `CN(c1ccc(S(=O)(=O)NC2CCOCC2)cn1)[C@@H]1CCN(c2ncnc3[nH]ccc23)C1` [Compound 259] showed an inhibition at 0.3 µM of 50 to 100%.
